Data from publication PMC10783034, “Pharmacokinetic and pharmacodynamic evaluation of the atypical tetracyclines chelocardin and amidochelocardin in murine infection models” (Microbiology Spectrum, 2023).
Converted amounts (≈) assume the structure as drawn.

What was measured:
E. coli C175-94 = assay: Ascending urinary tract infection model in OF-1 mice; type: in vivo; conditions: for bacterial burden in urine: CHD/CDCHD 12 mg/kg SC BID on day 1 and 2 post-inoculation; for bacterial burden in urine / bacterial burden in kidneys / bacterial burden in the bladder: day 3, vs vehicle; for animals with sterile kidneys / bacterial burden in kidneys / bacterial burden in the bladder: CHD/CDCHD 12 mg/kg SC BID, gentamicin 100 mg/kg SC BID; for animals with sterile kidneys: control animals 23.8%
Experimental: (§1) The model was conducted as described previously ([27], [60]). In brief, n = 21 animals were used per group in the main study, and n = 3 animals per group in satellite groups for histopathological analysis. Three days before the start of the study and during the study, mice had free access to 5% glucose as drinking water. Fresh overnight colonies of E. coli from a 5% horse blood agar plate were suspended in PBS pH 7.4 to approximately 10^9 cfu/mL. Approximately 1 hour before inoculation, mice were treated orally with […] Nurofen (20 mg ibuprofen/mL corresponding to approximately 30 mg/kg) as a pain relief. Urine was removed from the bladder by gently pressing the abdomen and mice were anaesthetized with 0.15 mL Zoletil mix SC. Thereafter, the mice were inoculated. A syringe with a catheter, containing the bacterial suspension was inserted via the urethra into the bladder and 50 µL of the inoculum was slowly injected into the bladder. Hereafter, the mouse was placed in the cage and kept in a warming cabinet until fully awake (approximately 4 hours). The mice were treated with CHD (12 mg/kg SC BID), CDCHD (12 mg/kg SC BID), gentamicin (100 mg/kg SC BID), or vehicle BID (2nd dose was administered approximately 6 hours after the 1st dose on each day) on day 1, that is, first dose around 24 hours post-infection, and day 2 post-inoculation. The mice were observed during the study and scored based on their behavior and clinical signs. Clinical scoring comprised assessment of piloerection in the skin, activity (movement, curiosity), and appearance of eyes. The scoring range comprised 0–4. In our model, a maximum score of 1; thus, only mild discomfort was observed. On day 3 post-inoculation and after sampling urine, mice were euthanized by cervical dislocation, and bladder and kidneys were removed from 21 mice in each treatment group aseptically for cfu determination. The bladder and kidneys were stored at −80°C and later homogenized in 0.5 or 1 mL saline, respectively. Colony counts of urine were determined immediately. From the three additional mice in each treatment group (satellite groups), urine and plasma were sampled and frozen at −80°C, and bladders, kidneys, and liver were collected in 4% buffered formalin. Cfu was determined in urine samples within 2–3 hours after sampling. Frozen organs were thawed and homogenized with steel beads using a tissue lyser. All samples, urine, kidney, and bladder, were 10-fold diluted in saline and 20 µL spots were applied on blue agar plates in duplicates. In addition, undiluted samples of urine (2–100 μL depending on the available amount of urine) were spread on a separate agar plate to determine the colony counts at the lowest possible detection level. All agar plates were incubated for 18–22 hours at 35°C in ambient air.
For the neutropenic thigh infection model with E. coli ATCC 25922, the thighs were regarded as two independent infection sites throughout the experiment. For statistical analysis, individual thighs (left and right) were treated as separate samples although these were not completely independent values. For the neutropenic thigh infection model with K. pneumoniae ATCC 43816, the individual thighs (left and right) were treated as one sample. For the efficacy models, the non-parametric Kruskal-Wallis test was used with GraphPad Prism 9.4.1. For the ascending urinary tract infection model, an ordinary one-way ANOVA with Dunnett’s multiple comparison test was used with GraphPad Prism 9.4.1.

[1] = Histopathological analysis of kidneys and bladder in the ascending urinary tract infection model (satellite groups); type: in vivo, mice; set-up: key to histopathological score Pelvis: 1 = mild; 2 = moderate; 3 = severe; histopathological score Papilla / histopathological score Bladder: scale not given here; conditions: for histopathological findings in bladder / histopathological findings in kidneys: infected mice, CHD/CDCHD 12 mg/kg SC BID, gentamicin 100 mg/kg SC BID
Experimental: as §1
Approximately 3 µm thick sections of formalin-fixed, paraffin-embedded samples of liver and kidney were analyzed blinded, and randomized to the experimental groups by a trained veterinarian. […] Kidneys were analyzed for changes in the glomeruli (not found), tubular dilation (1 = mild or up to 20% of tubuli affected, 2 = moderate or 25-40% of tubuli affected, 3 = severe 50% or more), and inflammatory infiltrate in the pelvis (1 = mild, 2 = moderate, 3 = severe).

K. pneumoniae strains = test system: K. pneumoniae strains; set-up: method as in PMID 32962088; conditions: selection of different K. pneumoniae strains; cited from earlier work
E. faecium DSM-20477 = assay: MIC determination; type: cell-based; conditions: TSB medium
Experimental: (§2) The assay was conducted as described previously ([54]) with the following modifications. The MIC was tested against the K. pneumoniae strain ATCC 43816 in an MHB (not cation-adjusted) medium. CHD and CDCHD were tested in concentrations ranging from 0.078 to 10 µg/mL. Moreover, the MIC was determined for the following strains: K. pneumoniae DSM-30104, E. faecium DSM-20477, S. aureus DSM-346, P. aeruginosa DSM-11128, A. baumannii DSM-30008, E. aerogenes DSM-30053, E. coli ATCC 25922, and E. coli C175-94. All strains were grown in MHB medium, except for E. faecium, which was grown in TSB. CHD, epi-CDH, and CDCHD were tested in concentrations ranging from 0.125 to 64 µg/mL as described previously ([19]).

E. coli ATCC 25922 = test system: E. coli ATCC 25922; set-up: method as in PMID 32962088; conditions: cited from earlier work
ESKAPE pathogens = assay: MIC determination against a variety of ESKAPE pathogens; type: cell-based; conditions: against A. baumannii, P. aeruginosa, and E. aerogenes
Experimental: as §2

K. pneumoniae ATCC 43816 = assay: MIC determination; type: cell-based; conditions: MHB (not cation-adjusted) medium
Experimental: as §2

| Structure (SMILES) | bacterial burden in urine (E. coli C175-94) | animals with sterile kidneys (E. coli C175-94) | bacterial burden in kidneys (E. coli C175-94) | bacterial burden in the bladder (E. coli C175-94) | histopathological score Glomeruli ([1]; animal No. 1) | histopathological score Papilla ([1]; animal No. 1) | histopathological score Pelvis ([1]; animal No. 1) | histopathological score Tubuli ([1]; animal No. 1) | histopathological score Bladder ([1]; animal No. 2) | histopathological score Glomeruli ([1]; animal No. 2) | histopathological score Papilla ([1]; animal No. 2) | histopathological score Pelvis ([1]; animal No. 2) | histopathological score Tubuli ([1]; animal No. 2) | histopathological score Bladder ([1]; animal No. 3) | histopathological score Glomeruli ([1]; animal No. 3) | histopathological score Papilla ([1]; animal No. 3) | histopathological score Pelvis ([1]; animal No. 3) | histopathological score Tubuli ([1]; animal No. 3) | histopathological findings in bladder [1] | histopathological findings in kidneys [1] | further results |
| --- | --- | --- | --- | --- | --- | --- | --- | --- | --- | --- | --- | --- | --- | --- | --- | --- | --- | --- | --- | --- | --- |
| Cc1ccc2c(C)c3c(c(O)c2c1O)C(=O)C1(O)C(=O)C(C(N)=O)=C(O)C(N)C1C3 (stereo not shown) [CDCHD, 2-carboxamido-2-deacetyl-chelocardin] | reduced bacterial burden in urine significantly | 61.9% | strong and significant reduction | significant reduction compared to vehicle control | 0 | 0 | 0 | 2 (2 = moderate or 25-40% of tubuli affected) | 0 | 0 | 0 | 1 | 2 (2 = moderate or 25-40% of tubuli affected) | 0 | 0 | 1 | 0 | 1 (1 = mild or up to 20% of tubuli affected) | did not show any significant alterations | a moderate tubulus dilation (resulting in moderate or 20%–40% of tubuli affected) and protein casts | histopathological score Bladder ([1]; animal No. 1): 0; MIC (K. pneumoniae strains): ~ 4 µg/mL; MIC (E. faecium DSM-20477): 2 µg/mL (≈ 4.85 µM); MIC (E. coli ATCC 25922): 2 µg/mL (≈ 4.85 µM) |
| CC(=O)C1=C(O)[C@H](N)[C@@H]2Cc3c(c(O)c4c(O)c(C)ccc4c3C)C(=O)[C@]2(O)C1=O [CHD, chelocardin] | reduced bacterial burden in urine significantly | 38.1% | slight, non-significant effect | significant reduction compared to vehicle control | 0 | 2 | 0 | 3 (3 = severe 50% or more) | - 1 1 | 0 | 2 | 1 | 3 (3 = severe 50% or more) | - 1 1 | 0 | 0 | 2 | 1 (1 = mild or up to 20% of tubuli affected) | mild, focal, submucosal inflammatory aggregates | moderate tubulus degeneration with vacuolated cytoplasm, accumulation of hyaline droplets, protein casts, and a mild to moderate accumulation of inflammatory cells | activity (in words) (ESKAPE pathogens): inactive; MIC (K. pneumoniae strains): ~ 4 µg/mL; MIC (K. pneumoniae ATCC 43816): 5 µg/mL (≈ 12.2 µM); MIC (E. faecium DSM-20477): 4 µg/mL (≈ 9.72 µM); MIC (E. coli ATCC 25922): 2 µg/mL (≈ 4.86 µM) |
